# The supplement of paper PMC10307832
# Experiments:
# Experiment in all cases: relative viability (nuclei count vs DMSO), 5 days (fraction); higher = more cells survive
# [1] = compound: CC1=C(C(=NN1)C)CC2=C(C3=C(S2)N(C(=O)N(C3=O)C)CC(C)C)C(=O)N4C[C@@H](CO4)O + C[C@]1(O)C[C@@H](c2nc(-c3ccc4ccc(-c5ccccc5)nc4c3)c3c(N)nccn32)C1 [Linsitinib] (partner 1 µM)
# Summary of the method: (§1)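 Cells from lung cancer lines were seeded into 1536-well plates and, one day later, dosed by pin tool. Treatments were either a single drug or a fixed dose of an anchor drug with five library-drug doses (not always all listed) in √10 steps. After 5 days, nuclei were stained in a one-step fixation (final 0.05% Triton X-100, 1% formaldehyde, 1 ug/ml Hoechst) and counted on 4× images, and relative viability is the treated-to-vehicle nuclei ratio, as the median of duplicate plates.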
# [2] = compound: CC1=C(C(=NN1)C)CC2=C(C3=C(S2)N(C(=O)N(C3=O)C)CC(C)C)C(=O)N4C[C@@H](CO4)O + CC(=O)c1c(C)c2cnc(Nc3ccc(N4CCNCC4)cn3)nc2n(C2CCCC2)c1=O [Palbociclib] (partner 0.5 µM)
# Summary of the method: as §1
# [3] = compound: CC1=C(C(=NN1)C)CC2=C(C3=C(S2)N(C(=O)N(C3=O)C)CC(C)C)C(=O)N4C[C@@H](CO4)O + O=C(c1cc(Cc2n[nH]c(=O)c3ccccc23)ccc1F)N1CCN(C(=O)C2CC2)CC1 [Olaparib] (partner 8 µM)
# Summary of the method: as §1
# IDH-C35 + Crizotinib = compound: Cc1ccccc1C(C(=O)NC1CCCCC1)N(C(=O)Cn1ccnc1C)c1cccc(F)c1 [IDH-C35] + C[C@@H](Oc1cc(-c2cnn(C3CCNCC3)c2)cnc1N)c1c(Cl)ccc(F)c1Cl [Crizotinib] (partner 1 µM)
# Summary of the method: as §1
cell line,measurement,setting,value
UMC-11,relative viability,[1]; first compound 0.0025 µM,1.01
same,relative viability,[1]; first compound 0.007906 µM,1
same,relative viability,[1]; first compound 0.025 µM,0.845
same,relative viability,[1]; first compound 0.07906 µM,0.793
same,relative viability,[1]; first compound 0.25 µM,0.767
same,relative viability,[2]; first compound 0.0025 µM,0.333
same,relative viability,[2]; first compound 0.007906 µM,0.31
same,relative viability,[2]; first compound 0.025 µM,0.296
same,relative viability,[2]; first compound 0.07906 µM,0.29
same,relative viability,[2]; first compound 0.25 µM,0.339
same,relative viability,[3]; first compound 0.0025 µM,0.386
same,relative viability,[3]; first compound 0.007906 µM,0.358
same,relative viability,[3]; first compound 0.025 µM,0.383
same,relative viability,[3]; first compound 0.07906 µM,0.456
same,relative viability,[3]; first compound 0.25 µM,0.957
same,relative viability,IDH-C35 + Crizotinib; first compound 0.08 µM,0.578
same,relative viability,IDH-C35 + Crizotinib; first compound 0.253 µM,0.56
same,relative viability,IDH-C35 + Crizotinib; first compound 0.8 µM,0.481
same,relative viability,IDH-C35 + Crizotinib; first compound 2.53 µM,0.576
same,relative viability,IDH-C35 + Crizotinib; first compound 8 µM,0.629
